Like-named read-outs stand apart in the source and are kept apart here.
What was measured:
[1] = system: Namalwa, a Burkitt lymphoma cell line; assay: In vitro potency (WST-8 cell viability assay), Namalwa; format: cell-based; conditions: read-out: IC50 Namalwa
Experimental: (§1) General Procedure Used: Samples of unconjugated free drug compounds or drug conjugates were added to 96-well flat bottomed tissue culture plates and titrated using serial dilutions to cover the desired molar range. Antigen positive (Ag^+) or Antigen negative (Ag^−) cells were added to the wells in specific cell densities in such a way that there were triplicate samples for each drug concentration for each corresponding cell line. The plates were then incubated at 37° C. in an atmosphere of 5% CO2 for 4-5 days depending on the cell line. COLO 205 (1,000 cells/well), Namalwa (3,000 cells/well), HEL 92.1.7 (3,000 cells/well)—4 days; RH30 (1,000 cells/well), HL60/QC (5,000 cells/well), Ramos (10,000 cells/well), KB (2,000 cells/well), BJAB (2,000 cells/well), NB4 (3,000 cells/well)—5 days, RPMI 8226 (8,000 cells/well)—6 days.
(§2) At the end of the incubation period cytotoxic potencies were then assessed using a WST-8 based cell viability assay and surviving cells were measured by developing with WST-8 (2-7 hours). The absorbance in each well was measured and the surviving fraction of cells at each concentration was plotted to reveal the cytotoxicity and/or antigen specificity (of the conjugates).
(§3) Using the general procedure described above, the cytotoxicity of the unconjugated free drug compounds was measured against seven cell lines: KB, a HeLa cell contaminant, HL60/QC, an acute myeloid leukemia cell line, Namalwa, a Burkitt lymphoma cell line, NB4, an acute promyelocytic leukemia cell line, HEL92.1.7, an erythroleukemia cell line, RPMI8226, a multiple myeloma cell line and BJAB, a B-cell leukemia cell line. […] The potency and specificity of the antibody-drug conjugates were measured against antigen-expressing cells, with and without the additions of an excess amount of blocking unconjugated antibody to show specificity of the killing effect. The MY9-6-drug conjugate was extremely potent towards three different antigen-expressing cells: HL60/ATCC, HL60/QC and NB-4, despite the very low antigen expression in NB4 cells. […] Similarly, the huFOLR1-drug conjugate was effective in killing antigen-expressing KB cells in a specific manner. Results are illustrated in FIGS. 25 and 26.

[2] = system: BJAB, a B-cell leukemia cell line; assay: In vitro potency (WST-8 cell viability assay), BJAB; format: cell-based; conditions: Homo sapiens, read-out: IC50 BJAB
Experimental: as §1, §2, §3

[3] = system: HL60/QC cells; assay: In vitro potency (WST-8 cell viability assay), HL60/QC; format: cell-based, human
Experimental: as §1, §2, §3
To compare in vitro potency measurements for the subject conjugates prepared with and without imine reactive reagent, such as sodium bisulfite, huMy9-6-BMPS-1f, huMy9-6-sulfo-SPDB-1f, and huMy9-6-Drug 2 were prepared with and without sodium bisulfite using the in situ sulfonation method (wherein the respective compounds of the invention was first mixed with sodium bisulfite and a bifunctional crosslinker bearing a reactive group, then the reaction mixture, without further purification, was reacted with the huMy9-6 monoclonal antibody as the cell-binding agent). IC50s for the conjugates on HL60-QC cells are shown below.

[4] = system: NB4, an acute promyelocytic leukemia cell line; assay: In vitro potency (WST-8 cell viability assay), NB4; format: cell-based; conditions: read-out: IC50 NB4
Experimental: as §1, §2, §3

[5] = system: HEL92.1.7, an erythroleukemia cell line; assay: In vitro potency (WST-8 cell viability assay), HEL92.1.7; format: cell-based; conditions: Homo sapiens
Experimental: as §1, §2, §3

[6] = system: KB cells; assay: In vitro potency (WST-8 cell viability assay), KB; format: cell-based; conditions: Homo sapiens, read-out: IC50 KB
Experimental: as §1, §2, §3

[7] = system: RPMI8226, a multiple myeloma cell line; assay: In vitro potency (WST-8 cell viability assay), RPMI8226; format: cell-based; conditions: Homo sapiens
Experimental: as §1, §2, §3

[8] = Phase I clinical evaluation; cited from earlier work
[9] = system: HL60/QC tumors; assay: In vivo efficacy in HL60/QC tumor bearing nude mice; conditions: HL60-QC tumor xenografts; for T/C %: ~20 μg/kg drug dose
Experimental: In this study, the anti-tumor activity of huMY9-6-SPDB-1f was investigated in female nude mice bearing HL60/QC tumors, a human acute myeloid leukemia model. HL60/QC tumor cells, 2×10^6 cells/mouse were subcutaneously inoculated at a volume of 0.1 mL/mouse in the area over the right shoulder of female athymic nude mice, 5 weeks of age. Eight days after tumor cell inoculation mice were randomized into groups (n=6 per group) by tumor volume. Treatment was initiated the day of randomization, and groups included a control group dosed with PBS (200 μL/injection), or a single treatment at various doses (5 to 100 μg/kg) of huMY9-6-SPDB-1f (50 μg/kg 1f dose corresponded to 2.5 mg/kg antibody dose). […] The minimum effective dose was estimated to be 20 μg/kg, which is about 35-fold lower that the maximum tolerated dose.
To compare in vivo efficacy of the subject conjugates prepared with or without an imine reactive group, huMy9-6-Drug 2 were formulated with or without 50 μM sodium bisulfite, and the conjugates were used to treat mice bearing HL60-QC tumor xenografts.

[10] = Homo sapiens, HL-60, free drug, read-out: IC50 HL60/QC
[11] = HEL 92.1.7, free drug, read-out: IC50 HEL92.1.7
[12] = RPMI-8226, free drug, read-out: IC50 RPMI8226

## COc1cc2c(cc1OCc1cccc(COc3cc4c(cc3OC)C(=O)N3c5ccccc5C[C@H]3CN4)c1)N=C[C@@H]1Cc3ccccc3N1C2=O [Compound 29b]
[1]; free drug
  IC50: 0.003 nM
[2]; free drug
  IC50: 0.003 nM
[3]; [10]
  IC50: 6 pM
[4]; free drug
  IC50: 0.007 nM
[5]; [11]
  IC50: 0.007 nM
[6]; free drug
  IC50: 0.007 nM
[7]; [12]
  IC50: 0.005 nM

## COc1cc2c(cc1OCc1cc(COc3cc4c(cc3OC)C(=O)N3c5ccccc5C[C@H]3CN4)cc(CSCC(C)(C)SSC)c1)N=C[C@@H]1Cc3ccccc3N1C2=O [Compound 27e]
[2]; free drug
  IC50: 0.12 nM
[3]; [10]
  IC50: 90 pM
[4]; free drug
  IC50: 0.13 nM
[5]; [11]
  IC50: 0.2 nM
[6]; free drug
  IC50: 0.39 nM
[7]; [12]
  IC50: 0.24 nM

## COc1cc2c(cc1OCc1cc(COc3cc4c(cc3OC)C(=O)N3c5ccccc5C[C@H]3C=N4)cc(CSCC(C)(C)SSC)c1)N=C[C@@H]1Cc3ccccc3N1C2=O [Compound 27d]
[2]; free drug
  IC50: 0.04 nM
[3]; [10]
  IC50: 50 pM
[4]; free drug
  IC50: 0.039 nM
[5]; [11]
  IC50: 0.14 nM
[6]; free drug
  IC50: 0.23 nM
[7]; [12]
  IC50: 0.07 nM

## COc1cc2c(cc1OCc1cccc(COc3cc4c(cc3OC)C(=O)N3c5ccccc5C[C@H]3CN4)c1)NC[C@@H]1Cc3ccccc3N1C2=O [Compound 29c]
[1]
  IC50: 0.013 nM
[2]
  IC50: 0.015 nM
[3]; Homo sapiens, HL-60, read-out: IC50 HL60/QC
  IC50: 30 pM
[4]
  IC50: 0.023 nM
[5]; HEL 92.1.7, read-out: IC50 HEL92.1.7
  IC50: 0.027 nM
[6]
  IC50: 0.057 nM
[7]; RPMI-8226, read-out: IC50 RPMI8226
  IC50: 0.16 nM

## COc1cc2c(cc1OCc1cccc(COc3cc4c(cc3OC)C(=O)N3c5ccccc5C[C@H]3C=N4)c1)N=C[C@@H]1Cc3ccccc3N1C2=O [Compound 29a]
[1]; free drug
  IC50: 0.002 nM
[2]; free drug
  IC50: 0.001 nM
[3]; [10]
  IC50: 1 pM
[4]; free drug
  IC50: 0.0023 nM
[5]; [11]
  IC50: 0.0031 nM
[6]; free drug
  IC50: 0.004 nM
[7]; [12]
  IC50: 0.011 nM

## COc1cc2c(cc1OCc1cc(COc3cc4c(cc3OC)C(=O)N3c5ccccc5C[C@H]3CN4)cc(CSCC(C)(C)SSC)c1)NC[C@@H]1Cc3ccccc3N1C2=O [Compound 27f]
[2]; free drug
  IC50: 1 nM
[3]; [10]
  IC50: 1700 pM
[4]; free drug
  IC50: 1.1 nM
[5]; [11]
  IC50: 1.8 nM
[6]; free drug
  IC50: 4.4 nM
[7]; [12]
  IC50: > 3 nM

## C=C1C[C@H]2C=Nc3cc(OCCCOc4cc5c(cc4OC)C(=O)N4CC(=C)C[C@H]4C=N5)c(OC)cc3C(=O)N2C1 [SJG-136]
[8]
  maximum tolerated dose: 45 μg/m^2

## COCCOCCOCCN(CC(C)(C)S(C)=S)c1cc(COc2cc3c(cc2OC)C(=O)N2c4ccccc4C[C@H]2C=N3)cc(COc2cc3c(cc2OC)C(=O)N2c4ccccc4C[C@H]2CN3)c1 (stereo partly drawn) [Compound 1d]
[1]; free drug
  IC50: 0.069 nM
[3]; [10]
  IC50: 32 pM
[6]; free drug
  IC50: 0.18 nM

B1: huMy9-6-Drug 2 (conjugate, chains of the INN, looked up)
VH: QVQLVESGGGVVQPGRSLRLSCAASGFTFSSFGMHWVRQAPGKGLEWVAYISSGSFTIYYADSVKGRFTISRDNSKNTLYLQMNSLRAEDTAVYYCARMRKGYAMDYWGQGTLVTVSS
VL: DVVMTQSPLSLPVTLGQPASISCRSSQIIIHSDGNTYLEWFQQRPGQSPRRLIYKVSNRFSGVPDRFSGSGSGTDFTLKISRVEAEDVGVYYCFQGSHVPHTFGQGTKVEIK
modifications: Drug 2 payload
[9]; conjugate formulated with 50 μM sodium bisulfite (+)
  Minimum effective dose (μg/kg drug): 19 μg/kg drug
[9]; conjugate formulated without 50 μM sodium bisulfite (−)
  Minimum effective dose (μg/kg drug): 18 μg/kg drug
[9]; formulated with 50 μM sodium bisulfite (+)
  T/C %: 16%
[9]; formulated without sodium bisulfite (−)
  T/C %: 20%
[3]; HL60-QC cells, antigen blocking with 1 μM unconjugated huMy9-6, conjugate prepared with NaHSO3 (+), read-out: IC50 (pM) huMy9-6 blocking
  IC50: > 3000 pM
[3]; HL60-QC cells, antigen blocking with 1 μM unconjugated huMy9-6, conjugate prepared without NaHSO3 (−), read-out: IC50 (pM) huMy9-6 blocking
  IC50: > 3000 pM
[3]; HL60-QC cells, conjugate prepared with NaHSO3 treatment (+), read-out: IC50
  IC50: 6.8 pM
[3]; HL60-QC cells, conjugate prepared without NaHSO3 treatment (−), read-out: IC50
  IC50: 16 pM

— patent USRE49918E1, “Cytotoxic benzodiazepine derivatives” (priority 2011, dated 2024)
